Source: US9926340B2, “NAD analogs and methods of using said NAD analogs in determining ribosylation of proteins with PARP mutants” (The Board of Regents of the University of Texas System, priority 2015, dated 2018)
Entries after “also recorded” stand apart in the source; their conditions may differ.

What was measured:
Assay in all cases: Automodification reaction, ADP-ribose Western blot / in-gel fluorescence after click to azido-rhodamine
Format in all cases: biochemical
Settings in all cases: FIG. 5I
asPARP-1 (PARP-1 L877A) = target: T1, asPARP-1 (PARP-1 L877A) (Mus musculus, UniProt P11103, L876A)
T1 construct: relative to un-shifted full length PARP-1 measured by densitometry of anti-PARP-1 western blots; made in house; host or cells: Sf9 insect cells (baculovirus)
T1 sequence (P11103 whole entry L876A): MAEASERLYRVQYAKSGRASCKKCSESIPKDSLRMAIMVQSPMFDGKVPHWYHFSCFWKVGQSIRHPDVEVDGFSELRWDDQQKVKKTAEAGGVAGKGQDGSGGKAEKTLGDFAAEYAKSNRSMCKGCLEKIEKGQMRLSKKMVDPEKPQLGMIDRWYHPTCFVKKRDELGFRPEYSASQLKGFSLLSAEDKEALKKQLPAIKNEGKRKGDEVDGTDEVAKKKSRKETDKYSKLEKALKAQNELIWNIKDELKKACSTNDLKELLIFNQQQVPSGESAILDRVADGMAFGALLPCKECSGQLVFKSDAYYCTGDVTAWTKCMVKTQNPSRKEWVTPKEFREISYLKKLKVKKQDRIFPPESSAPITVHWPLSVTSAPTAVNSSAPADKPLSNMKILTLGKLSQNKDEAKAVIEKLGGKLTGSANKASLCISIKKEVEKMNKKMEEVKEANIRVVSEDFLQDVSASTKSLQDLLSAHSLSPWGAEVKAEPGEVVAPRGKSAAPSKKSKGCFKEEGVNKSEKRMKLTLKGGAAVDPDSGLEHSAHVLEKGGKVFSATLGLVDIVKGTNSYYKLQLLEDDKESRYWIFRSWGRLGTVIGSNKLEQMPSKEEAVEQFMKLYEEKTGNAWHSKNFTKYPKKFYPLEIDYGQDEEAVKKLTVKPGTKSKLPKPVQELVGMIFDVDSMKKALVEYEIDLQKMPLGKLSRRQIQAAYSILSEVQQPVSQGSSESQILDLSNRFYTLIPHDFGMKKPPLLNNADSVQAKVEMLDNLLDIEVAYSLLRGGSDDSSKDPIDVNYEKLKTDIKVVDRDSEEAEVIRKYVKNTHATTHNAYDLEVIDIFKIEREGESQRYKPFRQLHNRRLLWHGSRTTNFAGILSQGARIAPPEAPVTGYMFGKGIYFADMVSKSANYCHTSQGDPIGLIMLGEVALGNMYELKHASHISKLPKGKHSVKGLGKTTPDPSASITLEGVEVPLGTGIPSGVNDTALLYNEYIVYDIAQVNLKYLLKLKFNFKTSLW
Procedure: (§1) In vitro automodification reactions. 200 ng PARP Protein was incubated in Automodification Buffer (30 mM HEPES, pH 8.0, 5 mM MgCl2, 5 mM CaCl2, 0.01% NP-40, 1 mM DTT, 100 ng/mL sonicated salmon sperm DNA (Stratagene), 100 ng/mL BSA (SIGMA)) with NAD^+ or NAD^+ analogs as indicated at 25° C. for 5 (PARP-1 and PARP2) or 30 minutes (PARP3) for Sf9-purified proteins and for 45 minutes for bacterially purified enzymes.
(§2) Reactions were stopped by addition of ⅓ reaction volume with 4×SDS-PAGE Loading Buffer (200 mM Tris, pH 6.8, 8% SDS, 40% Glycerol, 4% β-mercaptoethanol, 50 mM EDTA, 0.08% Bromophenol Blue) followed by boiling at 100° C. for 5 minutes. Reaction products in 1×SDS-PAGE buffer were then resolved on a 10% SDS-PAGE gel, transferred to a nitrocellulose membrane and blotted with a polyclonal antibody against PARP-1 or with an antibody-like detection reagent against ADP-ribose (MABE1016, Millipore). Relative quantitation of PARP-1 automodifications was performed by the ratio of PARylation-induced […] in SDS-PAGE mobility relative to un-shifted full length PARP-1 measured by densitometry of anti-PARP-1 western blots.
(§3) Reactions were stopped by methanol:chloroform precipitation (Wessel and Flugge, 1984). The protein pellets were clicked to azido-Rhodamine (Click Chemistry Tools) in Denaturing CC Buffer (100 mM HEPES, pH 8, 4 M Urea, 0.5 M NaCl, 2% CHAPS, 10 μM azido-Rhodamine, 1 mM THPTA (Click Chemistry Tools), 5 mM CuSO4, 5 mM Sodium Ascorbate) with Azido-Rhodamine, THPTA:CuSO4 complex, and Sodium Ascorbate each added sequentially in written order. […]
(§4) The automodification reactions were stopped by the addition of one third of a reaction volume of 4×SDS-PAGE Loading Buffer (200 mM Tris.HCl, pH 6.8, 8% SDS, 40% glycerol, 4% 3-mercaptoethanol, 50 mM EDTA, 0.08% bromophenol blue) followed by heating to 100° C. for 5 min. […] Relative quantification of PARP-1 automodification was performed using densitometry and was expressed as the ratio of the PARylation-induced decrease in PARP-1 mobility relative to non-shifted PARP-1. […]

asPARP-2 (L443A) = target: T2, asPARP-2 (L443A) (Homo sapiens, UniProt Q9UGN5, L443A)
T2 construct: made in house; host or cells: Sf9 insect cells (baculovirus)
T2 sequence (Q9UGN5 whole entry L443A): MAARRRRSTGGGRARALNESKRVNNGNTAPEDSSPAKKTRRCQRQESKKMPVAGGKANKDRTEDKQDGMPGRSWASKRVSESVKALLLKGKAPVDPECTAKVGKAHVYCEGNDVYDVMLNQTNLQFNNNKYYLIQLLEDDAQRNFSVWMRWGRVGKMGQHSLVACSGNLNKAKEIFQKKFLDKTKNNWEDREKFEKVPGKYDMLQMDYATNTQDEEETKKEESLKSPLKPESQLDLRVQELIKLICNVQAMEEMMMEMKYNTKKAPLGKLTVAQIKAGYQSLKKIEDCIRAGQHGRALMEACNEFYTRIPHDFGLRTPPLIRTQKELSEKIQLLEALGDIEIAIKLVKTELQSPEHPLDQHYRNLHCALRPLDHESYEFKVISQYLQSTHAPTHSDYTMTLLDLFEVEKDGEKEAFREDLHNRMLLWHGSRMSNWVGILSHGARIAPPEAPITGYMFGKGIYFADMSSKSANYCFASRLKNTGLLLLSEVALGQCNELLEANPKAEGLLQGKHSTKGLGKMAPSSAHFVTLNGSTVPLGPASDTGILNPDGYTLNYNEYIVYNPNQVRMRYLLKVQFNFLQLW
Procedure: as §1, §2, §3, §4

asPARP-3 (L394A) = target: T3, asPARP-3 (L394A) (Mus musculus, UniProt Q3ULW8, L399A)
T3 construct: made in house; host or cells: Sf9 insect cells (baculovirus)
T3 sequence (Q3ULW8 1-528 isoform Q3ULW8-2 L394A): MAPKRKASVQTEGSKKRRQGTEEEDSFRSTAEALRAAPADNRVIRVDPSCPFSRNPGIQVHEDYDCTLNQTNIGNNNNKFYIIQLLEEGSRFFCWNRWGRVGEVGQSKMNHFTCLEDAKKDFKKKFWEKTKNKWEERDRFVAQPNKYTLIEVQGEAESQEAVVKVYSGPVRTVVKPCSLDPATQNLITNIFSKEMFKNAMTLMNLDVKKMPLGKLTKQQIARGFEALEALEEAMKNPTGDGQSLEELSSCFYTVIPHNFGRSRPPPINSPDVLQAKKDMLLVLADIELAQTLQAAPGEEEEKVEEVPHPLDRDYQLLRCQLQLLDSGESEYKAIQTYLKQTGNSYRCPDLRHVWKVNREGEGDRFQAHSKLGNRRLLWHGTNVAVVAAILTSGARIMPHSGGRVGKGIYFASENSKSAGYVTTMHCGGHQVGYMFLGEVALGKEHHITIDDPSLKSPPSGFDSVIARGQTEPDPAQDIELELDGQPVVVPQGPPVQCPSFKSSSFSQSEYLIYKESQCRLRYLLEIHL
Procedure: as §1, §2, §3, §4

In the case of C#CCCSc1nc2c(N)ncnc2n1[C@@H]1O[C@H](COP(=O)(O)OP(=O)(O)OC[C@H]2O[C@@H]([n+]3cccc(C(N)=O)c3)C(O)C2O)[C@H](O)C1O (stereo partly drawn) [8-Bu(3-yne)T-NAD^+], the “catalytic activity of asPARP-1 with the NAD analog” value (asPARP-1 (PARP-1 L877A)) is reported as “catalytically active”, the “catalytic activity of asPARP-2 with the NAD analog” value (asPARP-2 (L443A)) is reported as “catalytically active; also recorded: supports activity” and the “catalytic activity of asPARP-3 with the NAD analog” value (asPARP-3 (L394A)) is reported as “catalytically active; also recorded: supports activity”.
